The text below walks through data of patent US20170216360A1, “METHODS AND COMPOSITIONS FOR IMPROVING HOMING OF CELLS INCLUDING MESENCHYMAL STEM CELLS” (SANOFI, priority 2014, published 2017).

Entries after “also recorded” stand apart in the source; their conditions may differ. Where a name gives a salt, the structure may show the parent alone. Read-outs that look alike come from different tables or passages of the source.

Assay [1] relates to CD11a surface expression on huMSCs. The assay can be described thus: Medium throughput screen: CD11a surface expression on MSCs, PE-CY5 anti-CD11a antibody, laser-scanning fluorescence microplate cytometer. The class given is cell-based, human. Further details: key to Cell surface ligand CD11a (induction of expression): NA = negative activity result; A = positive activity result. Conditions: pretreatment of huMSCs; for EC50: read-out: Cell Surface Marker ED 50 (M) Molar Concentration of Compound for CD11a Expression. Here is the method: An in vitro screen was performed for compounds that induce surface expression on huMSCs of the marker CD11a (LFA-1). This screen may be considered a medium throughput screen. Certain compounds that induce the increase of this surface marker were then selected for testing in an in vitro firm adhesion assay and/or in vivo systemic administration in an animal model of inflammation. The surface expression screen involved fluorophore-conjugated antibodies to the respective markers. Following pretreatment with the test compounds, samples of cells were incubated with the labeled antibodies for detection of surface marker expression and change relative to a reference level of untreated cells or negative control samples or values. Cells were pretreated with a concentration (3 μM) of each small molecule compound for 24 hours, followed by incubation with a fluorophore-conjugated anti-marker antibody to detect expression on MSC surface. Surface expression levels of marker ligands were then evaluated by laser-scanning fluorescence microplate cytometer. […] Cell viability in response to compounds was also tested to assess whether molecules have toxicity after 24 hours of pretreatment. Testing was performed on two different huMSC sources representing cells from different donors.
Further details of the screening approach are provided as follows. A unique single batch of bone marrow-derived MSC cells was prepared for the entire screening campaign by cell amplification using CellStack flasks and freezing in separate vials at passage P5. […] For each run, vials were thawed and cells directly seeded on 384-well plates at 3,000 cells per well in MSCGM medium. Following an overnight incubation, cells were treated with the indicated concentrations of compounds for 24 hours. Cells were washed in PBS, 3% BSA and incubated for one hour with PE-CY5-conjugated anti-CD11a monoclonal antibody (clone HI111). Expression of CD11a at the cell surface was detected using the Acumen Explorer, a laser-scanning fluorescence microplate cytometer after two PBS washings. HL-60 cells seeded at 10,000 cells per well and treated with 100 nM phorbol 12-myristate 13-acetate (PMA) for 24 h to induce cell adhesion were used as a positive control in each 384-well plate. Positive compounds were counter-screened for their auto-fluorescence by measuring the signal in the absence of antibody.
A single batch of bone marrow-derived MSC was prepared for the entire screening campaign by cell amplification using CellStack flasks and freezing in separate vials at passage P5. […] For each run, vials were thawed and cells directly seeded on 384-well plates at 3,000 cells per well in MSCGM medium. Following an overnight incubation, cells were pretreated with a low (0.1 μM) and high (3 μM) concentration of the compounds for 24 h. 9,000 cpds were tested in 112 assay plates, each 384-well plate contained 320 cpds (from column 5 to 24), one column for Max (Column2, HL60 cells) and one column for Min (Column4, MSC cells). Cells were washed in PBS, 3% BSA and incubated for one hour with PE-CY5-conjugated anti-CD11a monoclonal Ab (BD Biosciences). Expression of CD11a at the cell surface was detected after two PBS washes using the Acumen Explorer equipment, a laser-scanning fluorescence microplate cytometer. HL-60 cells (seeded at 10,000 cells per well and treated with 100 nM phorbol 12-myristate 13-acetate (PMA) for 24 h to induce cell adhesion) were used as a positive control in each 384-well plate. Positive compounds were counter-screened for their auto-fluorescence by measuring the signal in the absence of Ab. Shown in FIG. 4 is the global screening data. Using the Max, Min columns, we have calculated Max/Min ratio generated with CD11a Ab for each assay plate (signal/background ration in green columns was calculated for each of the 112 assay plates). […]

Assay [2] has as its system human mesenchymal stem cells. Description: In vitro functional firm adhesion assay of cells (Table 3, coating not stated). It counts as cell-based. Further details: key to Result, in vitro Firm Adhesion: NA = negative activity result; A = positive activity result. As to conditions: for Result, in vitro Firm Adhesion: pretreated huMSCs; for Firm adhesion, Percent increase: relative to untreated and/or negative control MSCs. Here is the method: (§1) Cell adhesion experiments were performed using Bioflux1000 (FluxionBio), allowing accurate control over shear flow. A special 48-well plate was used, in which a microfluidic channel (350 μm×70 μm) connects each pair of adjacent wells (termed inlet and outlet wells). The plate was placed under vacuum and the channels were coated from the inlet with recombinant human E-selectin (5 μg/mL) or ICAM-1 (5 μg/mL) and incubated at 37° C. for 1 h. Prior to introducing the cells into the channel, a wash with PBS−/− from the outlet well was performed for 5 min. Compound-pretreated MSCs were introduced into the channel, followed by attachment period of 2 minutes (no flow applied during the attachment period). Attached cells were then subjected to increasing shear flow, ranging from 0.25 dynes/cm^2 for up to 10 dynes/cm^2. Images were acquired using the Montage software and cell adhesion to the coated channels following subjection to shear flow was examined. See also disclosure elsewhere herein.
1. Obtain preferred channel coating (protein/cell monolayer). 2. Prepare cell suspension (same concentrations detailed above for different cell types). 3. Add 50 μl of cell suspension to outlet well. 4. Introduce cells into channel by applying shear force of 2 dynes/cm^2 (cells should be observed within 10-15 sec flowing from outlet to inlet). 5. Once cells are observed in the channel, stop the flow and allow the introduced cells to sit for different time periods ranging from 30 seconds to 5 minutes. 6. Following this settling period, apply shear force starting from 0.5 dynes/cm^2 up to 10 dynes/cm^2 and acquire videos using stream acquisition. 7. Cell quantification is then performed using the Montage software—percentage of cells adhered, rolled or washed away after applying shear flow should be quantified.

For assay [3], the system named is LPS-induced inflamed mouse ear. Description: In vivo MSC homing to LPS-induced inflamed ear after systemic infusion, intravital microscopy. Further details: key to In vivo functional assay (homing): NA = negative activity result; A = positive activity result. Conditions: for Increase of MSC homing to inflamed ear (%): relative to untreated cells. As to the method:
C57BL/6 mice (Charles River Laboratories, Wilmington, Mass.) were anesthetized with ketamine/xylazine and their ears shaved 24 h prior to cell infusion. To induce an inflammatory response, 30 μg of E. coli lipopolysaccharide (LPS, Sigma, St. Louis, Mo.) in 50 μL saline was injected into the pinna of the left ear, with 50 μL 0.9% saline injected into the right ear as a control. For in vivo dye sensitivity validation, 1×10e6 cells of each stain were suspended in 150 μL PBS (pH 7.4) and injected by retro-orbital vein infusion.
To evaluate the minimum number of cells needed for a reproducible response, each mouse (n=4) received a range of cell doses (10,000, 50,000, 100,000, or 500,000) each of cells stained with Dil or DiD with a dye switch (i.e., dyes used for experimental and control cells were alternated to prevent bias based on the dyes that were used). To evaluate the impact of small molecule hit pre-treatment on MSC homing to the inflamed ear, MSCs were incubated with 3 μM of the small molecule hit or 0.1% DMSO as a control for 24 h before staining and in vivo administration. To highlight the vasculature, 50 μL of 10 mg/mL FITC-dextran ([…]; Sigma, St. Louis, Mo.) was injected retro-orbitally prior to imaging.
In vitro staining and in vivo homing of stained MSCs to the skin was imaged noninvasively in real time using a custom-built video-rate laser-scanning confocal microscope designed specifically for live animal imaging. For in vivo imaging, the mouse ear was positioned under a coverslip with methylcellulose gel and images acquired at 30 frames per second at a depth up to 200 μm using a 60×1.0NA water immersion objective lens (Olympus, Center Valley, Pa.). DiO labeled MSCs were excited with a 491 nm continuous wave (CW) laser (Cobalt, Stockholm, Sweden), and detected through a 520±20 nm bandpass filter (Semrock, Inc., Rochester, N.Y.). Dil labeled MSCs were excited with a 561 nm CW laser (Coherent, Inc., Santa Clara, Calif.) and detected through a 593 nm±40 nm filter (Omega Optical, Brattleboro, Vt.). DiD labeled MSCs were excited with a 635 nm CW laser (Coherent, Inc., Santa Clara, Calif.) and detected through a 695 nm±27.5 nm band pass filter (Omega Optical, Brattleboro, Vt.). DiR labeled MSCs were excited using a femtosecond Ti:Sapphire Maitai source for single photon excitation at 750 nm (Spectra Physics, Santa Clara, Calif.) and collected through a 785 nm±31 nm band pass filter (Omega Optical, Brattleboro, Vt.).
For quantification, the average number of cells in 20 representative imaging locations across the inflamed region was counted in each mouse. Cells were defined as having a diameter from 10-30 μm to eliminate debris and clumps from analysis, and a primary channel intensity greater than 2 to eliminate autofluorescent events. The average relative detection sensitivity (ratio of Dil/DiD counts) determined in the overall dye efficiency experiments were used to scale the counts for DiD stained cells. […] For multiple comparisons, Tukey's HSD test was used. Error bars in graphs represent standard error, and statistical significance is denoted by * p<0.05.

The subject of assay [4] is CD11a surface expression on MSCs. The assay can be described thus: Flow cytometry of CD11a surface expression on MSCs (FITC-CD11a Ab). As to conditions: 3 μM for 24 h. The class given is cell-based, human. Here is the method: MSCs were pretreated with DMSO vehicle control (DMSO-MSC, 0.1%) or ruboxistaurin (Rub-MSC, 3 μM) for 24 h and CD11a expression levels were assessed via flow cytometry (cells were stained with either FITC-CD11a Ab or isotype control, representative data from n=3 independent experiments).
A general note: Flow cytometry measures light scatter and fluorescence of single cells or particles in a stream.

In assay [5] the test system is MSC firm adhesion to ICAM-1-coated surface. The assay can be described thus: ICAM-1 firm adhesion assay under shear flow, with antibody blocking. It counts as cell-based, human. Conditions: 3 μM for 24 h. As to the method: as §1
Pre-confluent MSCs were incubated for 24 hours with the indicated small molecules (3 μM). MSCs were than detached, washed and incubated for 30 minutes with an antibody reagent. The following antibodies are used: anti-human CD11a (clone: HI111), anti-human CD90 (clone: MAB2067), mouse anti-human CD11a (clone: TS1/22), and mouse IgG1 isotype control. Cells were then introduced into the channel and given 2 minutes to adhere before being subjected to increasing shear flow for a firm adhesion assay on a microfluidic channel coated with E-selectin or ICAM-1.

For the compound `CN1C(=O)C(c2c[nH]c3ccccc23)=C(c2cn(C)c3ccccc23)C1=O` [Compound 1905, 3-(1H-indol-3-yl)-1-methyl-4-(1-methyl-1H-indol-3-yl)-pyrrole-2,5-dione], in assay [1] (Homo sapiens), the EC50 came out at 1.68e-05 M.

As for `Cn1cc(C2=C(c3cn(C4CCN(Cc5ccccn5)CC4)c4ccccc34)C(=O)NC2=O)c2ccccc21` [Compound 1906, 3-(1-methyl-1H-indol-3-yl)-4-[1-(1-pyridin-2-ylmethyl-piperidin-4-yl)-1H-indol-3-yl]-pyrrole-2,5-dione, reference compound], in assay [1] (Homo sapiens), the EC50 worked out at 3.19e-06 M.

With `Cn1cc(C2=C(c3cn(C)c4ccccc34)C(=O)NC2=O)c2ccccc21` [Compound 1912, 3,4-bis-(1-methyl-1H-indol-3-yl)-pyrrole-2,5-dione], the “Cell surface ligand CD11a (induction of expression)” value (shortened to “Cell surface ligand CD11a”) in assay [1] is on record as “A”.

In the case of `Cn1cc(C2=C(c3c4n(c5ccccc35)CCC(CN)C4)C(=O)NC2=O)c2ccccc21` (stereo not shown) [Compound 1919, 3-(8-aminomethyl-6,7,8,9-tetrahydro-pyrido[1,2-a]indol-10-yl)-4-(1-methyl-1H-indol-3-yl)-pyrrole-2,5-dione], in assay [2], the “Result, in vitro Firm Adhesion” value is listed as “A” and the “Firm adhesion, Percent increase” value is on record as 81%. The “Increase of MSC homing to inflamed ear (%)” value in assay [3] was 45%. Moreover, in assay [3] (systemic administration of pretreated huMSCs), the “In vivo functional assay (homing)” value is “A”. In assay [1], the “Cell surface ligand CD11a” value is reported as “A” and the EC50 came out at 2.75e-06 M.

For `O=C1C(c2c[nH]c3ccccc23)=C(c2c[nH]c3ccccc23)C(=O)N1Cc1ccccc1` [Compound 1921, 1-benzyl-3,4-bis-(1H-indol-3-yl)-pyrrole-2,5-dione], in assay [1] (Homo sapiens), the EC50 was 1.75e-05 M. Further, the “Cell surface ligand CD11a” value in assay [1] is “A”.

In the case of `CN1CCCC1CCn1cc(C2=C(c3c[nH]c4ccccc34)C(=O)NC2=O)c2ccccc21` (stereo not shown) [Compound 1928, 3-(1H-indol-3-yl)-4-{1-[2-(1-methyl-pyrrolidin-2-yl)-ethyl]-1H-indol-3-yl}-pyrrole-2,5-dione], the “Cell surface ligand CD11a” value in assay [1] is “A”.

Consider `CN(C)CC1CCn2c(c(C3=C(c4cn(C)c5ccccc45)C(=O)NC3=O)c3ccccc32)C1` (stereo not shown) [Compound 1933, 3-(8-dimethylaminomethyl-6,7,8,9-tetrahydro-pyrido[1,2-a]indol-10-yl)-4-(1-methyl-1H-indol-3-yl)-pyrrole-2,5-dione hydrochloride], for which, in assay [2], the “Result, in vitro Firm Adhesion” value is “A” and the “Firm adhesion, Percent increase” value came out at 75%. Further, in assay [3], the “Increase of MSC homing to inflamed ear (%)” value is less than 10%. Moreover, the EC50 in assay [1] (Homo sapiens) amounted to 2.49e-05 M. The “Cell surface ligand CD11a” value in assay [1] is on record as “A”.

Consider `CN(C)CCCn1cc(C2=C(c3c[nH]c4ccccc34)C(=O)NC2=O)c2ccccc21` [Compound 1934, 3-[1-(3-dimethylamino-propyl)-1H-indol-3-yl]-4-(1H-indol-3-yl)-pyrrole-2,5-dione], for which the “Cell surface ligand CD11a” value in assay [1] is “A”.

Take `CN(C)C[C@@H]1CCn2cc(c3ccccc32)C2=C(C(=O)NC2=O)c2cn(c3ccccc23)CCO1` [Ruboxistaurin, ruboxistaurin, reference compound]: the “Firm adhesion, Percent increase” value in assay [2] is recorded as 0% (negative response). The “CD11a surface expression on MSCs” value in assay [4] is “did not increase; also recorded: does not upregulate”. Besides, the “MSC firm adhesion to ICAM-1-coated substrates, result in words” value in assay [5] is recorded as “did not improve”. Further, in assay [1] (Homo sapiens), the EC50 is more than 3e-05 M.
